Experimental data: patent US12637687B2, “Nucleic acid molecules, polypeptides having epoxy group-removing catalytic activity and use thereof” (SHANDONG AGRICULTURAL UNIVERSITY, priority 2020, dated 2026)

B1: ThFhb7: de-epoxidase from Thinopyrum ponticum; polypeptide having epoxy group-removing catalytic activity, amino acid sequence SEQ ID NO: 36, gene SEQ ID NO: 1 (protein, listed as Elytrigia ponticum)
chain: MATSASTSTPIIPTAIAGAPPVAGTCCAVAPTLSALALAPLAVPTTTTTVLMPAISSVAASLAVPACALPAAGSAPATLPIIHAPATASLVGASPAIAATLGATTPASGAGALPPPGLLATAVGAAMPGLLIPLSGIAASPGLAATAAPASAVAAAPTAHVGLMVHGLPLAPATAAVTLAGPVAAAGLSSTAALGMVGGAAALMMGSLAAMLGALAALPALAASGPPLLGGAATTAAMIVGGTLAMMAATLPVSGTGGAAACHGAIPGGLHAALALTAGVL

Key:
Conditions in all cases: in vivo
ThFhb7 = system: ThFhb7; set-up: species or system Thinopyrum ponticum
F. graminearum [1] = system: F. graminearum
F. graminearum [2] = system: F. graminearum; remark: listed apart in the source
F. graminearum [3] = system: F. graminearum; remark: listed apart in the source

Row | Molecule | conversion into glutathione adducts in transgenic wheat overexpressing ThFhb7 (ThFhb7) | disease spot area of ex-vivo leaves vs receptor material (F. graminearum [1]) | diseased spot area on leaves vs KN199 (F. graminearum [2]) | number of diseased spikelets vs control receptor material (F. graminearum [3])
1 | CC(=O)O[C@@H]1C[C@]2(C)[C@@]3(CO)[C@H](O)C(=O)C(C)=C[C@H]3O[C@H]1[C@@]21CO1 [3-ADON, 3-acetyl-deoxynivalenol] | efficiently catalyzed into glutathione adducts |  |  | 
2 | CC(=O)OC[C@]12[C@H](O)C(=O)C(C)=C[C@H]1O[C@@H]1[C@H](O)C[C@@]2(C)[C@]12CO2 [15-ADON, 15-acetyl-deoxynivalenol] | efficiently catalyzed into glutathione adducts |  |  | 
3 | CC1=C[C@H]2O[C@@H]3[C@H](O)C[C@](C)([C@@]2(CO)[C@H](O)C1=O)[C@]31CO1 [DON, deoxynivalenol] | efficiently catalyzed into glutathione adducts |  |  | 
4 | CC1=C[C@H]2O[C@@H]3[C@H](O)[C@@H](O)[C@](C)([C@@]2(CO)[C@H](O)C1=O)[C@]31CO1 [NIV, nivalenol] | efficiently catalyzed into glutathione adducts |  |  | 
5 | B1 |  | significantly reduced | significantly reduced | significantly less
